ChEMBL document CHEMBL3351982, “Microwave-assisted synthesis and biological evaluation of 3,4-diaryl maleic anhydride/N-substituted maleimide derivatives as combretastatin A-4 analogues” (Bioorg Med Chem Lett, 2015)

How the values were obtained:
[1] = test system: KB; assay: Cytotoxicity against human KB cells assessed as cell growth inhibition after 72 hrs by MTT assay; type: functional, cell-based
[2] = Cytotoxicity against human SGC7901 cells assessed as cell growth inhibition after 72 hrs by MTT assay; type: functional, cell-based; details: SGC-7901, 72 h
[3] = Cytotoxicity against human HT1080 cells assessed as cell growth inhibition after 72 hrs by MTT assay; type: functional, cell-based; details: HT-1080, 72 h
[4] = target: Tubulin (Bos taurus, UniProt Q6B856+Q862L2+Q862F3); assay: (§1) Inhibition of bovine brain tubulin polymerization
[5] = target: Tubulin (Bos taurus) (UniProt Q6B856+Q862L2+Q862F3); assay: as §1

IC50 [4] [µM]	inhibition [5]	Structure (SMILES)	IC50 [1] [µM]	IC50 [2] [µM]	IC50 [3] [µM]
		COc1ccc(C2=C(c3cc(OC)c(OC)c(OC)c3)C(=O)N(C)C2=O)cc1N	1.3	1.5	0.75
		COc1ccc(C2=C(c3cc(OC)c(OC)c(OC)c3)C(=O)N(OC)C2=O)cc1N	> 30	> 30	> 30
		COc1ccc(C2=C(c3cc(OC)c(OC)c(OC)c3)C(=O)OC2=O)cc1N	2.3	1.6	2.4
		COc1ccc(C2=C(c3cc(OC)c(OC)c(OC)c3)C(=O)N(C)C2=O)cc1O	3	2.5	13.3
3	Dose-dependent effect	COc1ccc(C2=C(c3cc(OC)c(OC)c(OC)c3)C(=O)N(O)C2=O)cc1N	1.1	1.3	0.65
		COc1ccc(C2=C(c3cc(OC)c(OC)c(OC)c3)C(=O)OC2=O)cc1	10.8	13.2	16.5
		COc1ccc(C2=C(c3cc(OC)c(OC)c(OC)c3)C(=O)OC2=O)cc1O	> 30	27.9	> 30
		COc1cc(C2=C(c3ccc4ccccc4c3)C(=O)N(C)C2=O)cc(OC)c1OC	16.7	12.3	22.5
		COc1ccc(C2=C(c3cc(OC)c(OC)c(OC)c3)C(=O)N(OC)C2=O)cc1	> 30	> 30	> 30
		COc1cc(C2=C(c3ccc4ccccc4c3)C(=O)OC2=O)cc(OC)c1OC	> 30	> 30	> 30
		COc1cc(C2=C(c3ccc4ccccc4c3)C(=O)N(OC)C2=O)cc(OC)c1OC	> 30	> 30	> 30
		COc1ccc(C2=C(c3cc(OC)c(OC)c(OC)c3)C(=O)N(O)C2=O)cc1O	6.7	4.5	2.4
		COc1ccc(/C=C\c2cc(OC)c(OC)c(OC)c2)cc1O [COMBRETASTATIN A4]		0.028	0.008
		COc1ccc(C2=C(c3cc(OC)c(OC)c(OC)c3)C(=O)N(O)C2=O)cc1	5.6	5.3	4.1
		COc1cc(C2=C(c3ccc4ccccc4c3)C(=O)N(O)C2=O)cc(OC)c1OC	10.1	16.5	6.4
		COc1ccc(C2=C(c3cc(OC)c(OC)c(OC)c3)C(=O)N(OC)C2=O)cc1O	> 30	> 30	> 30
		COc1ccc(C2=C(c3cc(OC)c(OC)c(OC)c3)C(=O)N(C)C2=O)cc1	14.2	12.3	15.6
